# In BindingDB's records for doi:10.1016/j.bmcl.2008.12.079 (Gilead Sciences, 2009):
# Target: T1, Gag-Pol polyprotein [1148-1435] (Human immunodeficiency virus 1, UniProt P04585)
# T1 construct: 1148-1435
# Experiment: DNA Strand-Transfer Activity Assay
# Conditions: pH 7.3; 22 °C
# Description: In the strand-transfer assay, the biotinylated donor DNA was bound to streptavidin-coated plates, and integrase was added to each well to allow processing of the donor DNA. Serially diluted compounds and DIG-tagged target DNA were then added to each well, and 3-end joining reaction was allowed to proceed for 30 min. Signal was detected using horseradishperoxidase-conjugated anti-Digoxin antibody through chemiluminescence measurement.
smiles,measurement,value
"COc1c2c(c(O)c3ncc(Cc4ccc(F)cc4)cc13)C(=O)N(C)C2 [3-[(4-fluorophenyl)methyl]-9-hydroxy-5-methoxy-7-methyl-6H,7H,8H-pyrrolo[3,4-g]quinolin-8-one]",IC50,100 nM
